The subject of this experiment is mice fed a high-fat diet deficient in choline and methionine. As to the kind of experiment: Mouse on a methionine/choline deficient high-fat diet (MCD-HFD). Type of experiment: in vivo. The settings on record: for macrophage numbers, inflammatory infiltrate by F4/80 immunohistochemistry: statistically significant; for levels of mRNA expression for all markers of liver fibrosis / levels of mRNA expression for all markers of liver inflammation: vs control Group II. The procedure:
The study was performed in mice fed a high-fat diet deficient in choline and methionine (MCD-HFD or MCD diet), a model that reproduces the clinical manifestations of human steatohepatitis and fibrosis in mice. These mice received the sGC stimulator Compound B prophylactically (at two doses, 1 and 3 mg/kg/day in the food), starting at the same time as the start of the administration of the high-fat diet deficient in choline/methionine, and before animals started manifesting clinical signs of steatohepatitis.
The prophylactic treatment with Compound B proceeded for a total of 9 weeks simultaneously with the high-fat diet deficient in choline/methionine administration. At the end of the treatment, the degree of inflammation was assessed in the liver by determining levels of gene expression for IL-6, TNFα, IL-10, MCP-1β, IL-1 and IL-Ira, by real-time PCR. Inflammation levels were also determined by assessing inflammatory infiltrate by F4/80 immunohistochemistry, and necroinflammation was assessed by hematoxylin-eosin staining. Liver fibrosis was determined by measuring levels of gene expression for collagen type I and II, MMP-2, TIMP-1 and TGFβ1 at the mRNA level. Histological analysis was carried out of tissue sections stained with Masson's trichrome and Sirius Red.
Group I (n=5): Chow Control group received a matching sucrose diet equivalent to the high-fat diet (HFD) for 9 weeks.
Group II (n=15): Choline/methionine deficient HFD Control group (MCD control group) received a Choline/methionine deficient HFD diet for 9 weeks.
Group III (n=10): Choline/methionine deficient HFD for 9 weeks supplemented with Compound B dosed in food (1 mg/kg body weight/day). (IW1 group)
Group IV (n=10): Choline/methionine deficient HFD for 9 weeks supplemented with Compound B dosed in food (3 mg/kg body weight/day). (IW3 group)
After treatment, animals were sacrificed and liver and blood samples were collected. The effects of the sGC stimulator on liver weight, steatosis, inflammation and fibrosis were evaluated as follows:
Total RNA was obtained with the RNAqueous kit. RNA concentrations were assessed in a UV-spectrophotometer and the RNA's integrity tested on a 6000 LabChip in a 2100 Bioanalyzer (Agilent Technologies, Palo Alto, Calif.). First strand cDNA synthesis was performed by incubating 1 μg of total RNA with 2.5 μl of 10×RT buffer, 1 μl of 25×dNTPs, 2.5 μl of 10× Primers and 1.25 μl of reverse transcriptase (25 μl final volume) for 10 minutes at 25° C. following 2 hours at 37° C. in a ABI thermal cycler. Ready-to-use primer and probe sets pre-developed by Applied Biosystems (TaqMan Gene Expression Assays) were used to quantify gene expression using R-actin as an endogenous control. Briefly, PCR reactions were performed in duplicate using the Universal TaqMan 2×PCR mastermix in a volume of 20 μl containing 1.25 μl cDNA. Real-time quantitative PCR was performed with an ABI Prism 7900 Sequence Detection System (Applied Biosystems) using the fluorescent TaqMan methodology. Real time PCR results were analyzed with the Sequence Detector Software version 2.1 (Applied Biosystems) and relative quantitation of gene expression was performed using the 2-ΔΔ Ct method. (User Bulletin #2; http://docs.appliedbiosystems.com/pebiodocs/04303859.pdf).
Tissue samples fixed in 10% formalin were embedded in paraffin, cut into 5 μm sections, stained with H&E and analyzed by a registered pathologist unaware of the treatments. Tissue sections were incubated for 10 minutes in 0.5% thiosemicarbazide and stained in 0.1% Sirius Red F3B in saturated picric acid for 1 hour, and subsequently washed with an acetic acid solution (0.5%). Masson's trichrome staining was performed at the Pathology Department of the Hospital Clinic, Barcelona, Spain. […]

The mark [1] stands for this setting: 3 mg/kg in food, 9 weeks (Group IV) vs control Group II.
Where [2] appears, read: Group III (1 mg/kg/day), 9 weeks.
[3] abbreviates: Group IV (3 mg/kg/day), 9 weeks.

Turning to `OC(CNc1nc(-c2cc(-c3ccon3)n(Cc3ccccc3F)n2)ncc1F)(C(F)(F)F)C(F)(F)F` [Compound B], the “Total NAS” value (1 mg/kg (Group III) vs control group II) is given as “reduced” and the “Total NAS” value (3 mg/kg (Group IV) vs control group II) is listed as “reduced”. Further, the “fibrosis as detected using Picrosirius Red staining” value is on record as “significantly reduced” (1 mg/kg in food, 9 weeks (Group III)) and “significantly reduced” (3 mg/kg in food, 9 weeks (Group IV)). The “liver tissue weight versus total body weight ratio” value under setting [1] was “statistically significant reduction”. The “percentage of white adipose tissue in the liver” value under setting [1] is recorded as “statistically significant reduction”. Also, the “reduction of fibrosis by analysis of trichrome stain and α-SMA deposition” value (1 and 3 mg/kg in food, 9 weeks, FIG. 4) is recorded as “confirmed”. For the same molecule, the “macrophage numbers, inflammatory infiltrate by F4/80 immunohistochemistry” value is reported as “decrease” (Group III (1 mg/kg) vs control group II) and “decrease” (Group IV (3 mg/kg) vs control group II). In addition, the “levels of mRNA expression for all markers of liver fibrosis” value is listed as “reduced in a statistically significant manner” under setting [2] and “reduced in a statistically significant manner” under setting [3]. The “levels of mRNA expression for all markers of liver inflammation” value by setting is: under setting [2], “reduced in a statistically significant manner”; under setting [3], “reduced in a statistically significant manner”.

These data come from patent US11357777B2, “Use of sGC stimulators for the treatment of nonalcoholic steatohepatitis (NASH)” (Cyclerion Therapeutics, Inc., priority 2016, dated 2022).
